According to article PMC10620940 (ACS Omega, 2023):
Read-outs that look alike come from different tables or passages of the source.

Experiments:
SARS-CoV-2 [1] = settings: A549 + ACE2 cells, pretreatment; cited from earlier work
SARS-CoV-2 PL^pro = settings: in vitro SARS-CoV-2 PL^pro; cited from earlier work
SARS-CoV-2 [2] = settings: SARS-CoV-2-infected mice; cited from earlier work
in vitro = settings: human, CC50, U2-OS ACE2 GFP cells
[3] = test system: SARS-CoV-2 strain BetaCoV/France/IDF0372/2020; assay: microbe, parasite or virus in culture; settings: Severe acute respiratory syndrome coronavirus 2, U2OS
SARS-CoV-2 [4] = settings: cited from earlier work

SMILES	IC50 (SARS-CoV-2 [1]) [nM]	IC50 (SARS-CoV-2 PL^pro) [nM]	viral load in the lungs (SARS-CoV-2 [2])	CC50 (in vitro) [nM]	IC50 [3] [nM]	IC50 (SARS-CoV-2 [4]) [nM]
COc1ccc2nc3cc(Cl)ccc3c(Nc3cc(CN4CCCC4)c(O)c(CN4CCCC4)c3)c2n1 [7g, pyronaridine]	230	1800	reduces viral load	4700	420	
CCC(CC)COC(=O)[C@H](C)N[P@](=O)(OC[C@H]1O[C@@](C#N)(c2ccc3c(N)ncnn23)[C@H](O)[C@@H]1O)Oc1ccccc1 [remdesivir]						20 to 50
CCN(CC)CCCC(C)Nc1c2ccc(Cl)cc2nc2ccc(OC)cc12 (centres unmarked) [quinacrine]	190				2570	
